Test system: Donor 3 COP T-Cell Lines
Assay: ATP proliferation assay (CellTiter Glo), Donor 3 COP T-cell lines, incl. reactivity to non-canonical GA peptides
Format: cell-based, human
Conditions: for Reactivity (proliferation), Mean: Day 54 of culture

glatiramer acetate [GMA]
Mean, ATP proliferation assay (T-cell line 165-D3C, 3 μg/mL, Day 46, after 3 days): 80112 RLU | Reactivity (proliferation), Mean (T-cell line 165-D3C, 10 μg/mL antigen, No Antigen 8319): 57024 RLU | Mean, ATP proliferation assay (T-cell line 165-D3C, 10 μg/mL, Day 46, after 3 days): 107772 RLU | Reactivity (proliferation), Mean (T-cell line 165-D3C, 100 μg/mL antigen, No Antigen 8319): 14205 RLU | Mean, ATP proliferation assay (T-cell line 165-D3C, Day 32, 10 μg/mL): 3436 RLU | Reactivity (proliferation), Mean (T-cell line 165-D11C, 1 μg/mL antigen, No Antigen 4571): 3636 RLU | Mean, ATP proliferation assay (T-cell line 165-D11C, 1 μg/mL, Day 46, after 3 days): 15655 RLU | Reactivity (proliferation), Mean (T-cell line 165-D11C, 3 μg/mL antigen, No Antigen 4571): 6578 RLU | Mean, ATP proliferation assay (T-cell line 165-D11C, 3 μg/mL, Day 46, after 3 days): 17777 RLU | Reactivity (proliferation), Mean (T-cell line 165-D11C, 10 μg/mL antigen, No Antigen 4571): 16338 RLU | Mean, ATP proliferation assay (T-cell line 165-D11C, 10 μg/mL, Day 46, after 3 days): 56609 RLU | Reactivity (proliferation), Mean (T-cell line 165-D11C, 100 μg/mL antigen, No Antigen 4571): 14560 RLU | Mean, ATP proliferation assay (T-cell line 165-D11C, Day 32, 10 μg/mL): 416 RLU | Reactivity (proliferation), Mean (T-cell line 165-E3C, 1 μg/mL antigen, No Antigen 2797): 2954 RLU | Mean, ATP proliferation assay (T-cell line 165-E3C, 1 μg/mL, Day 46, after 3 days): 10662 RLU | Reactivity (proliferation), Mean (T-cell line 165-E3C, 3 μg/mL antigen, No Antigen 2797): 17065 RLU | Mean, ATP proliferation assay (T-cell line 165-E3C, 3 μg/mL, Day 46, after 3 days): 35044 RLU | Reactivity (proliferation), Mean (T-cell line 165-E3C, 10 μg/mL antigen, No Antigen 2797): 37602 RLU | Mean, ATP proliferation assay (T-cell line 165-E3C, 10 μg/mL, Day 46, after 3 days): 68577 RLU | Reactivity (proliferation), Mean (T-cell line 165-E3C, 100 μg/mL antigen, No Antigen 2797): 23437 RLU | Mean, ATP proliferation assay (T-cell line 165-E3C, Day 32, 10 μg/mL): 3723 RLU | Reactivity (proliferation), Mean (T-cell line 165-F3C, 1 μg/mL antigen, No Antigen 3150): 9423 RLU | Proliferation (luminescent ATP assay), Mean (T-cell line 165-F3C, 1 μg/mL antigen, Day 77 of culture, 0 μg/mL 1563): 7277 | Mean, ATP proliferation assay (T-cell line 165-F3C, 1 μg/mL, Day 46, after 3 days): 45592 RLU | Reactivity (proliferation), Mean (T-cell line 165-F3C, 3 μg/mL antigen, No Antigen 3150): 37555 RLU | Proliferation (luminescent ATP assay), Mean (T-cell line 165-F3C, 3 μg/mL antigen, Day 77 of culture, 0 μg/mL 1563): 50400 | Mean, ATP proliferation assay (T-cell line 165-F3C, 3 μg/mL, Day 46, after 3 days): 101328 RLU | Reactivity (proliferation), Mean (T-cell line 165-F3C, 10 μg/mL antigen, No Antigen 3150): 44621 RLU | Proliferation (luminescent ATP assay), Mean (T-cell line 165-F3C, 10 μg/mL antigen, Day 77 of culture, 0 μg/mL 1563): 70563 | Mean, ATP proliferation assay (T-cell line 165-F3C, 10 μg/mL, Day 46, after 3 days): 84268 RLU | Reactivity (proliferation), Mean (T-cell line 165-F3C, 100 μg/mL antigen, No Antigen 3150): 12391 RLU | Mean, ATP proliferation assay (T-cell line 165-F3C, Day 32, 10 μg/mL): 1257 RLU | Reactivity (proliferation), Mean (T-cell line 165-F6C, 1 μg/mL antigen, No Antigen 2189): 15671 RLU | Mean, ATP proliferation assay (T-cell line 165-F6C, 1 μg/mL, Day 46, after 3 days): 18511 RLU | Proliferation (luminescent ATP assay), Mean (T-cell line 165-F6C, 1.25 μg/mL antigen, Day 76 of culture, No Antigen value 517): 629 | Proliferation (luminescent ATP assay), Mean (T-cell line 165-F6C, 2.5 μg/mL antigen, Day 76 of culture, No Antigen value 517): 3,197 | Reactivity (proliferation), Mean (T-cell line 165-F6C, 3 μg/mL antigen, No Antigen 2189): 40274 RLU | Mean, ATP proliferation assay (T-cell line 165-F6C, 3 μg/mL, Day 46, after 3 days): 43634 RLU | Proliferation (luminescent ATP assay), Mean (T-cell line 165-F6C, 5 μg/mL antigen, Day 76 of culture, No Antigen value 517): 11,867 | Reactivity (proliferation), Mean (T-cell line 165-F6C, 10 μg/mL antigen, No Antigen 2189): 38921 RLU | Proliferation (luminescent ATP assay), Mean (T-cell line 165-F6C, 10 μg/mL antigen, Day 76 of culture, No Antigen value 517): 20,141 | Mean, ATP proliferation assay (T-cell line 165-F6C, 10 μg/mL, Day 46, after 3 days): 34321 RLU | Reactivity (proliferation), Mean (T-cell line 165-F6C, 100 μg/mL antigen, No Antigen 2189): 3690 RLU | Mean, ATP proliferation assay (T-cell line 165-F6C, Day 32, 10 μg/mL): 1489 RLU | response in proliferation assay (all seven Donor 3 COP T-cell lines tested, Day 54): responded well | reactivity in confirmatory ATP proliferation assay (six Donor 3 COP lines, Day 32, 10 μg/mL (Table 23)): showed reactivity
